In patent US7960389B2, “4(phenyl-piperazinyl-methyl) benzamide derivatives and their use for the treatment of pain or gastrointestinal disorders” (priority 2002, dated 2011) one finds EC50, Emax and IC50 data, which are given here for 11 compounds.

In assay [1] the target is T1, human δ receptors (Homo sapiens, UniProt P41143).
T1 construct: expressed in transfected cells; host or cells: human 293S (HEK-293S) cells
In words: Human δ receptor functional assay (GTP[γ]35S binding, HEK-293S cell membranes). To be noted: for Emax: relative to standard δ agonist SNC80, receptors expressed at higher levels, read-out: Human δ % EMax (high). Format: biochemical. As for the experimental part:
(§1) • A. Human 293S cells expressing cloned human κ, δ and μ receptors and neomycin resistance are grown in suspension at 37° C. and 5% CO2 in shaker flasks containing calcium-free DMEM10% FBS, 5% BCS, 0.1% Pluronic F-68, and 600 μg/ml geneticin. • B. Rat brains are weighed and rinsed in ice-cold PBS (containing 2.5 mM EDTA, pH 7.4). The brains are homogenized with a polytron for 30 sec (rat) in ice-cold lysis buffer (50 mM Tris, pH 7.0, 2.5 mM EDTA, with phenylmethylsulfonyl fluoride added just prior use to […] from a 0.5M stock in DMSO:ethanol). Membrane Preparation
Cells are pelleted and resuspended in lysis buffer (50 mM Tris, pH 7.0, 2.5 mM EDTA, with PMSF added just prior to use to 0.1 mM from a 0.1 M stock in ethanol), incubated on ice for 15 min, then homogenized with a polytron for 30 sec. The suspension is spun at 1000 g (max) for 10 min at 4° C. The supernatant is saved on ice and the pellets resuspended and spun as before. The supernatants from both spins are combined and spun at 46,000 g(max) for 30 min. The pellets are resuspended in cold Tris buffer (50 mM Tris/Cl, pH 7.0) and spun again. The final pellets are resuspended in membrane buffer (50 mM Tris, 0.32 M sucrose, pH 7.0). Aliquots (1 ml) in polypropylene tubes are frozen in dry ice/ethanol and stored at −70° C. until use. The protein concentrations are determined by a modified Lowry assay with sodium dodecyl sulfate.
(§2) The agonist activity of the compounds is measured by determining the degree to which the compounds receptor complex activates the binding of GTP to G-proteins to which the receptors are coupled. In the GTP binding assay, GTP[γ]^35S is combined with test compounds and membranes from HEK-293S cells expressing the cloned human opioid receptors or from homogenised rat and mouse brain. Agonists stimulate GTP[γ]^35S binding in these membranes. The EC50 and Emax values of compounds are determined from dose-response curves. Right shifts of the dose response curve by the delta antagonist naltrindole are performed to verify that agonist activity is mediated through delta receptors. For human δ receptor functional assays, EC50 (low) is measured when the human δ receptors used in the assay were expressed at lower levels in comparison with those used in determining EC50 (high). The Emax values were determined in relation to the standard δ agonist SNC80, i.e., higher than 100% is a compound that have better efficacy than SNC80.
For orientation: GTPγS resists hydrolysis and so accumulates on activated G proteins.

The target in assay [2] is T1, human δ receptors. In words: Binding assay, membranes of human 293S cells expressing cloned human δ receptors.
For assay [3], the target named is T2, δ receptors in rat brain membranes (Rattus norvegicus, UniProt P33533).
T2 construct: Rat brain membranes are thawed at 37° C; from tissue; host or cells: rat brain homogenate membranes
Kind of assay: Rat brain functional assay (GTPγ35S binding, rat brain membranes). Format: biochemical. To be noted: Table 1, relative to SNC80. As for the experimental part: as §1, §2
Rat brain membranes are thawed at 37° C., passed 3 times through a 25-gauge blunt-end needle and diluted in the GTPγS binding (50 mM Hepes, 20 mM NaOH, 100 mM NaCl, 1 mM EDTA, 5 mM MgCl2, pH 7.4, Add fresh: 1 mM DTT, 0.1% BSA). 120 μM GDP final is added membranes dilutions. […] The basal and maximal stimulated binding are determined in absence and presence of 3 μM SNC-80

Another assay deals with T3, human κ receptors (Homo sapiens, UniProt P41145).
T3 construct: expressed in transfected cells; host or cells: human 293S cells
Kind of assay: Binding assay, membranes of human 293S cells expressing cloned human κ receptors.

Read-outs that look alike come from different tables or passages of the source.

T2 sequence (P33533 whole entry): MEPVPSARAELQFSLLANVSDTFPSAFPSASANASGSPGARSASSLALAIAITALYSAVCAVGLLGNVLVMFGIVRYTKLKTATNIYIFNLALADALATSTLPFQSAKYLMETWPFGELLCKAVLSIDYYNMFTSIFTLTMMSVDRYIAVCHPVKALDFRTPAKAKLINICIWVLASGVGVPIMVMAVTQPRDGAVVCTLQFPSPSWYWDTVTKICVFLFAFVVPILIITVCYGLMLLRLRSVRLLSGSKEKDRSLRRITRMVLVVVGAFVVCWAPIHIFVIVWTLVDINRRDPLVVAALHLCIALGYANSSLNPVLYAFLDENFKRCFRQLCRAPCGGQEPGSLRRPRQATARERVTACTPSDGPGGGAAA
T1 sequence (P41143 whole entry): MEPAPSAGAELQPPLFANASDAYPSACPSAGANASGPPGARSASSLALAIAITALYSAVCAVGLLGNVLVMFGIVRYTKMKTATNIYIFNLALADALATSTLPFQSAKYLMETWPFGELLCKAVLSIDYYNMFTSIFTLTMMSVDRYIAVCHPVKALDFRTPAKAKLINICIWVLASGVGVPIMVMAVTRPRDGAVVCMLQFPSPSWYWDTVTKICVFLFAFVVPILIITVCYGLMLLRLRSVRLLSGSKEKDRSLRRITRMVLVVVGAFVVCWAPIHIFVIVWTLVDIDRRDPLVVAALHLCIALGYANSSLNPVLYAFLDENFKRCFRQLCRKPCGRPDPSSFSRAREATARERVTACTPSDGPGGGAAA
T3 sequence (P41145 whole entry): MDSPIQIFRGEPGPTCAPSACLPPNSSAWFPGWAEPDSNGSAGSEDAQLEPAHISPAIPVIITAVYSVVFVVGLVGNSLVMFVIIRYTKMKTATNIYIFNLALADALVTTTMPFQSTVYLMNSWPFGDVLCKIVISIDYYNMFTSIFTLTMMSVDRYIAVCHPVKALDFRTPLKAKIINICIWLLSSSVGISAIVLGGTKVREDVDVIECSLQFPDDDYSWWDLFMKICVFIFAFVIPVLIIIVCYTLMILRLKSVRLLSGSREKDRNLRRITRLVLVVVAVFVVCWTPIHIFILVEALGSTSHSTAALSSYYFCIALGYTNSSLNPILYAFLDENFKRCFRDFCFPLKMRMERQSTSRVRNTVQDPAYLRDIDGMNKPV

For orientation: EC50 means the concentration that produces a half-maximal response. Broadly, the Emax is the maximal effect, on the per cent scale that the assay sets. One may read the IC50 as the concentration at which inhibition is half-maximal. On human δ receptors [1], `CCN(CC)C(=O)c1ccc([C@H](c2cccc(NC(=O)OC)c2)N2CCN(Cc3ccccc3)CC2)cc1` [Compound 1, R-Methyl 3-[(4-[(diethylamino)carbonyl]phenyl)(4-benzyl-piperazin-1-yl)methyl]phenylcarbamate] came in with an EC50 of 0.55 to 1.93 nM. The Emax at human δ receptors [1] (Table 1) was in the range of 89 to 102%; in assay [3], 135 to 170%. Besides, the concentration for half-maximal inhibition (IC50) on human δ receptors [2] lay within 0.25 to 0.74 nM.

On human δ receptors [1], `CCN(CC)C(=O)c1ccc([C@@H](c2cccc(NC(=O)OC)c2)N2CCN(Cc3ccccc3)CC2)cc1` [Compound 2, S-Methyl 3-[(4-[(diethylamino)carbonyl]phenyl)(4-benzyl-piperazin-1-yl)methyl]phenylcarbamate] showed an EC50 of 0.55 to 1.93 nM. The Emax at human δ receptors [1] (Table 1) was 89 to 102%; in assay [3] it was 135 to 170%. On human δ receptors [2], this compound had an IC50 of 0.25 to 0.74 nM.

`CCN(CC)C(=O)c1ccc([C@@H](c2cccc(NC(=O)OC)c2)N2CCN(Cc3cccs3)CC2)cc1` [Compound 3, S-Methyl 3-{{4-[(diethylamino)carbonyl]phenyl}[4-(thien-2-ylmethyl)piperazin-1-yl]methyl}phenylcarbamate] displayed an EC50 on human δ receptors [1] of 0.55 to 1.93 nM. In addition, the Emax at human δ receptors [1] (Table 1) lay in the range of 89 to 102%; in assay [3], 135 to 170%. At human δ receptors [2], this compound displayed an IC50 of 0.25 to 0.74 nM.

Turning to `CCN(CC)C(=O)c1ccc([C@H](c2cccc(NC(=O)OC)c2)N2CCN(Cc3cccs3)CC2)cc1` [Compound 4, R-Methyl 3-{{4-[(diethylamino)carbonyl]phenyl}[4-(thien-2-ylmethyl)piperazin-1-yl]methyl}phenylcarbamate], the EC50 at human δ receptors [1] is 0.55 to 1.93 nM. Moreover, the Emax on human δ receptors [1] (Table 1) lay within 89 to 102%; in assay [3], 135 to 170%. Also, the IC50 at human δ receptors [2] was in the range of 0.25 to 0.74 nM.

With `CCN(CC)C(=O)c1ccc([C@@H](c2cccc(NC(=O)OC)c2)N2CCN(Cc3ccsc3)CC2)cc1` [Compound 5, S-Methyl 3-{{4-[(diethylamino)carbonyl]phenyl}[4-(thien-3-ylmethyl)piperazin-1-yl]methyl}phenylcarbamate], the EC50 on human δ receptors [1] was in the range of 0.55 to 1.93 nM. In addition, the values for the Emax (on human δ receptors [1] (Table 1); in assay [3]) were 89 to 102% and 135 to 170%, respectively. Moreover, the IC50 at human δ receptors [2] fell in the range of 0.25 to 0.74 nM.

Consider `CCN(CC)C(=O)c1ccc([C@H](c2cccc(NC(=O)OC)c2)N2CCN(Cc3ccsc3)CC2)cc1` [Compound 6, R-Methyl 3-{{4-[(diethylamino)carbonyl]phenyl}[4-(thien-3-ylmethyl)piperazin-1-yl]methyl}phenylcarbamate], for which the EC50 on human δ receptors [1] is 0.55 to 1.93 nM. The Emax on human δ receptors [1] (Table 1) lay within 89 to 102%; in assay [3] it was 135 to 170%. At human δ receptors [2], this compound came in with a half-maximal inhibitory concentration (IC50) of 0.25 to 0.74 nM.

As for `CCN(CC)C(=O)c1ccc([C@@H](c2cccc(NC(=O)OC)c2)N2CCN(Cc3ccco3)CC2)cc1` [Compound 7, S-Methyl 3-{{4-[(diethylamino)carbonyl]phenyl}[4-(2-furylmethyl)piperazin-1-yl]methyl}phenylcarbamate], at human δ receptors [1], the EC50 was 0.55 to 1.93 nM. Also, the Emax on human δ receptors [1] (Table 1) lay in the range of 89 to 102%; in assay [3] it was 135 to 170%. This compound also gave an IC50 on human δ receptors [2] of 0.25 to 0.74 nM.

For `CCN(CC)C(=O)c1ccc([C@H](c2cccc(NC(=O)OC)c2)N2CCN(Cc3ccco3)CC2)cc1` [Compound 8, R-Methyl 3-{{4-[(diethylamino)carbonyl]phenyl}[4-(2-furylmethyl)piperazin-1-yl]methyl}phenylcarbamate], the EC50 on human δ receptors [1] is 0.55 to 1.93 nM. The Emax on human δ receptors [1] (Table 1) lay in the range of 89 to 102%; in assay [3], 135 to 170%. Besides, the IC50 at human δ receptors [2] was 0.25 to 0.74 nM.

In turn, `CCN(CC)C(=O)c1ccc([C@@H](c2cccc(NC(=O)OC)c2)N2CCN(Cc3ccoc3)CC2)cc1` [Compound 9] came in with an EC50 at human δ receptors [1] of 0.55 to 1.93 nM. In addition, the values for the Emax (at human δ receptors [1] (Table 1); in assay [3]) were 89 to 102% and 135 to 170%, respectively. The IC50 on human δ receptors [2] lay in the range of 0.25 to 0.74 nM.

As for `CCN(CC)C(=O)c1ccc([C@H](c2cccc(NC(=O)OC)c2)N2CCN(Cc3ccoc3)CC2)cc1` [Compound 10, R-Methyl 3-{{4-[(diethylamino)carbonyl]phenyl}[4-(3-furylmethyl)piperazin-1-yl]methyl}phenylcarbamate], at human δ receptors [1], the EC50 lay in the range of 0.55 to 1.93 nM. Moreover, the results for the Emax (at human δ receptors [1] (Table 1); in assay [3]) were 89 to 102% and 135 to 170%, respectively. The compound also yielded an IC50 at human δ receptors [2] of 0.25 to 0.74 nM.

Consider `CCN(CC)C(=O)c1ccc([C@H](c2cccc(NC(=O)OC)c2)N2CCN(Cc3ncc[nH]3)CC2)cc1` [Compound 11, R-Methyl 3-{{4-[(diethylamino)carbonyl]phenyl}[4-(1H-imidazol-2-ylmethyl)piperazin-1-yl]methyl}phenylcarbamate], for which the IC50 at human κ receptors is 247 to 1640 nM; at human δ receptors [2] (Table 1, displacement of radioactive δ receptor ligand, read-out: Human δ IC50), 0.25 to 0.74 nM. Besides, the EC50 at human δ receptors [1] (Table 1, human δ receptors expressed at higher levels, read-out: Human δ EC50 (high)) was 0.55 to 1.93 nM. Besides, the Emax at human δ receptors [1] (Table 1) lay in the range of 89 to 102%; in assay [3], 135 to 170%.
